EC50, IC50 and inhibition in vivo data for 13 molecules are collected here from US8153658B2, “Piperidine derivative or salt thereof” (Astellas Pharma, Inc., priority 2006, dated 2012).

Structures can show the parent of a compound that is named as a salt. Where two headings read alike, the source gives them in different places. Where only a bound is given, the exact number is not on record here.

The target in experiment [1] is T1, human CaSR (Homo sapiens, UniProt P41180).
T1 construct: a human CaSR open reading frame (ORF) was contained in the pcDNA3.1/Zeo(+) vector; expressed in transfected cells
T1 sequence (P41180 20-1078): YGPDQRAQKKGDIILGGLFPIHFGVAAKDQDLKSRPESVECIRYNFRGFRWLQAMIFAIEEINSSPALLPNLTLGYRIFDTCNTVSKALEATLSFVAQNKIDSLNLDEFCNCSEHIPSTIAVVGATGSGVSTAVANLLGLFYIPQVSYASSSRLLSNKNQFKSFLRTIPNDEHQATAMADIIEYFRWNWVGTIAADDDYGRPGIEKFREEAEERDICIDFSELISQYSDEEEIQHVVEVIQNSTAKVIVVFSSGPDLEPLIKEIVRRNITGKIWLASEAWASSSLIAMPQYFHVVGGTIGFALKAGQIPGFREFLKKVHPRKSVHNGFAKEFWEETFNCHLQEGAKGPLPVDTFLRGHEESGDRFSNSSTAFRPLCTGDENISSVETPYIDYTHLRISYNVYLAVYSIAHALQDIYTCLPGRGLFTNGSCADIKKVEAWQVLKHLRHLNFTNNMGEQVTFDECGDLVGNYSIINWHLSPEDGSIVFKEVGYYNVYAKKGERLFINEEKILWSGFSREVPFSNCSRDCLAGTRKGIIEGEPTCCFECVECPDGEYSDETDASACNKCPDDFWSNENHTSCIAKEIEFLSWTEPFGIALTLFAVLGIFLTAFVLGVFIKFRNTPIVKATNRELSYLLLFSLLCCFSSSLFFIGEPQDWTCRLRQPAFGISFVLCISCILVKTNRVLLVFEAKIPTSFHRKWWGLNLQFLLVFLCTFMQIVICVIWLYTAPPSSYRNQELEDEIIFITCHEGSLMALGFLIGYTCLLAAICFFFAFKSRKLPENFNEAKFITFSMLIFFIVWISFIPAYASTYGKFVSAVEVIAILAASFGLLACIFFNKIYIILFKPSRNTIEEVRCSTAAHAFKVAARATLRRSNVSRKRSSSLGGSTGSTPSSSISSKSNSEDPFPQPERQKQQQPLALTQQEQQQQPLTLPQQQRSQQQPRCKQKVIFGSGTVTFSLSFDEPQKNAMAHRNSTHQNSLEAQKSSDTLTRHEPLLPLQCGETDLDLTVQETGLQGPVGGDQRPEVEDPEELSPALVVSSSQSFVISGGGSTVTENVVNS
Put plainly: Human calcium sensing receptor (CaSR) agonism test (Fluo-3 / FLIPR). Type of experiment: cell-based. As to conditions: HEK 293 cell stably expressing human CaSR; 0.5 mM Ca2+; 2 mM Ca2+ group = 100%; read-out: EC50 (compound concentration showing 50% human CaSR agonistic activity). From the text: Test 1. Human calcium sensing receptor (CaSR) agonism test
1) Preparation of Human CaSR Expression Vector
A DNA fragment coding for human CaSR was cloned in the standard method.
Illustratively, using 203 to 2387 of NM_000388 as a DNA fragment D4, and 2210 to 3633 as a DNA fragment B2, they were amplified using a human kidney cDNA (manufactured by Invitrogen) as the template and using a DNA polymerase (a registered trade name: Pyrobest, manufactured by Takara Bio), and respectively cloned into a pCR2.1 vector using a pCR2.1-Topo vector (manufactured by Invitrogen). Next, the DNA fragments prepared by digesting the pCR2.1-D4 with SpeI and XbaI were inserted into the same sites of pcDNA3.1/Zeo(+) vector. Successively, the fragments prepared by digesting pCR2.1-B2 with SacI and XbaI were inserted into the SacI and XbaI sites of previously prepared pcDNA3.1/Zeo(+)-D4(SpeI-XbaI), thereby obtaining a human CaSR expression vector pcDNA3.1/Zeo(+)-hCaSR in which a human CaSR open reading frame (ORF) was contained in the pcDNA3.1/Zeo(+) vector.
2) Preparation of Human CaSR Expression Cell
The human CaSR expression vector was transferred into a HEK 293 cell using a transfection reagent (registered trademark: FuGene 6, manufactured by Roche Diagnostics). After the gene transfer, this was cultured in a DMEM (manufactured by Invitrogen) medium containing 40 μg/ml Zeocin (registered trademark, manufactured by Invitrogen) and a 10% fetal bovine serum at 37° C. for 2 weeks in the presence of 5% CO2, thereby obtaining Zeocin-resistant clones. A human CaSR stably expressing HEK 293 clone was obtained from these clones by selection using the responsiveness to extracellular Ca^2+ as an index.
3) Human CaSR Agonism Test
The HEK 293 cell stably expressing human CaSR was inoculated into a poly-D-lysine-coated black clear bottom 96 well plate (manufactured by BD Biosciences). Hanks' balanced salt solution (HBSS) (Ca^2+ (−), Mg^2+ (−), manufactured by Invitrogen) containing a 20 mM HEPES (2-[4-(2-hydroxyethyl)-1-piperazinyl]ethanesulfonic acid) buffer (pH 7.4), 2.5 mM of probenecid (manufactured by Sigma), and 0.1% of bovine serum albumin was prepared as a washing buffer. After the inoculation and the subsequent overnight culturing, the medium was discarded, the washing buffer supplemented with 1 mM CaCl2 and 10 μM Fluo-3 AM (trade name, manufactured by DOJINDO) was added thereto in 100 μl per well portions, and then the incubation was carried out at 37° C. for 1 hour in the presence of 5% CO2. This was washed twice with 200 μl of the washing buffer, replaced by 100 μl of the washing buffer supplemented with 0.5 mM CaCl2 and allowed to stand still for 10 minutes, and then the responsiveness to each compound to be evaluated was detected using a plate reader for fluorometry image analysis use (registered trademark: FLIPR, manufactured by Molecular Devices). In this connection, the compound to be evaluated was used by optionally diluting with the washing buffer supplemented with 0.5 mM Ca^2+.
The human CaSR agonistic activity strength of each compound to be evaluated was calculated by defining the solvent group as 0% and the 2 mM of Ca^2+ in the final concentration group as 100%, and the compound concentration showing 50% activity (EC50) was calculated from a concentration-activity curve by the method of least squares.

Experiment [2] has as its target CYP2D6 (Homo sapiens, UniProt P10635). Put plainly: Human CYP2D6 inhibition test. The experiment is classed as biochemical. More on the design: purchased BD Gentest 456217. The following applies: CYP2D6 7.5 pmol/mL; fluorescence substrate AMMC 1.5 μM; 37° C. 30 minutes. Here is the method:
Test 3. Human CYP2D6 Inhibition Test
Inhibitory activity evaluation for CYP2D6 was carried out by measuring it in accordance, roughly, with a reference (“Drug Metabolism and Disposition”, 2001, vol. 29, p. 1196-1200).
Final concentrations of the reagents in the enzyme reaction solution were respectively set to CYP2D6=7.5 pmol/mL (manufactured by BD Gentest, Catalog No. 456217), reduced type nicotinamide adenine dinucleotide phosphate (NADPH) regeneration system (0.0081 mM nicotinamide adenine dinucleotide phosphate (NADP+), 0.41 mM glucose-6-phosphate, 0.41 mM MgCl2, 0.4 units glucose-6-phosphate dehydrogenase), and a fluorescence substrate AMMC=1.5 μM, 100 mM potassium phosphate buffer (pH 7.4). Each compound was made into a 50% acetonitrile solution and added to the enzyme reaction solution (acetonitrile final concentration 2.5%). The enzyme reaction was carried out at 37° C. for 30 minutes, the reaction was stopped using a stopping liquid (0.1 M tris(hydroxymethyl)aminomethane (Tris-base):acetonitrile=20:80), and the fluorescence intensity was then measured. The concentration showing 50% inhibition (IC50) was calculated from the thus obtained fluorescence intensity, by defining the enzyme activity at a time of no compound addition as 100%.

A short description of experiment [3]: Measurement of rat plasma calcium concentration. Type of experiment: in vivo. The following applies: read-out: Rat plasma calcium concentration reducing ratio (%) 2 hours after administration (3 mg/kg). How it is done:
Test 2. Measurement of Rat Plasma Calcium Concentration and Plasma PTH Concentration
The compounds of the present invention were administered to rats, and their influences upon the plasma calcium concentration and the plasma PTH concentration were examined. The test was carried out by single oral administration of the compounds of the present invention and the control compounds to 5 to 6 normal male rats, or male rats with renal failure, respectively As a vehicle group, 0.5% of a methyl cellulose (MC) solution was administered at a dose of 5 ml/kg. As a reference compound, cinacalcet was dissolved in the MC solution and administered at a dose of 3 mg/kg. Each of the compounds of the present invention was dissolved or suspended in the MC solution, and administered at a dose of 1, 3 or 10 mg/kg.
Blood samples were collected from the orbital venous plexus under ether anesthesia before the administration and 2 hours, 4 hours, or 8 hours in some cases, after the administration, and the plasma calcium concentration was measured using Calcium E-Test Wako (manufactured by Wako Pure Chemical Industries), and the plasma PTH concentration was measured using a Rat Intact PTH ELISA Kit (manufactured by Immutopics).

Setting [4] is: normal male rats, single oral administration 3 mg/kg, 2 hours after administration.

Sequence of CYP2D6 (P10635 whole entry): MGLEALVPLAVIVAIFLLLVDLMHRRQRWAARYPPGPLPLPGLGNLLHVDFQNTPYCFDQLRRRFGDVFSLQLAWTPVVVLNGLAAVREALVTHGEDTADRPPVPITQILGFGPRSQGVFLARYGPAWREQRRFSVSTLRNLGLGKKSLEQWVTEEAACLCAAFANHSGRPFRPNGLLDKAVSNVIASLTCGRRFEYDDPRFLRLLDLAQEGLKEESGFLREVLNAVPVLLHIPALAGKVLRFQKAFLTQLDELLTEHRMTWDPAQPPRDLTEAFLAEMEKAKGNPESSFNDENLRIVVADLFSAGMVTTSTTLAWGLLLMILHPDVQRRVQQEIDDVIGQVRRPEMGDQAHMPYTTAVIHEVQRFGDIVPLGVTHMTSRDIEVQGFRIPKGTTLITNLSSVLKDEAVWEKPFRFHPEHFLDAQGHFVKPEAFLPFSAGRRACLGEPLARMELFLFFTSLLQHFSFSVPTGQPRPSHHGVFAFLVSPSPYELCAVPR

For `C[C@@H](NCC1CN(C(=O)Nc2ccc(C(=O)O)cc2)CCC1c1cccc(F)c1)c1cccc2ccccc12` (stereo partly drawn) [Example 13, 4-({[4-(3-fluorophenyl)-3-({[(1R)-1-(1-naphthyl)ethyl]amino}methyl)piperidin-1-yl]carbonyl}amino)benzoic acid hydrochloride], in experiment [1], the EC50 was determined as 2.9 nM. Also, the IC50 in experiment [2] is not below 20000 nM.
For the molecule `C[C@@H](NCC1CCN(C(=O)Oc2ccc(C(=O)O)cc2)CC1c1ccccc1)c1cccc2ccccc12` (stereo partly drawn) [Example 25, 4-({[4-({[(1R)-1-(1-naphthyl)ethyl]amino}methyl)-3-phenylpiperidin-1-yl]carbonyl}oxy)benzoic acid hydrochloride], the EC50 in experiment [1] was determined as 13 nM. The inhibition in vivo at 3 mg/kg in experiment [3] (po, 2 h) amounted to 17%. The IC50 in experiment [2] was not below 20000 nM.
Turning to `COc1cc(C(=O)O)ccc1NC(=O)N1CCC(c2ccccc2)C(CN[C@H](C)c2cccc3ccccc23)C1` (stereo partly drawn) [Example 3, 3-methoxy-4-({[3-({[(1R)-1-(1-naphthyl)ethyl]amino}methyl)-4-phenylpiperidin-1-yl]carbonyl}amino)benzoic acid], the EC50 in experiment [1] is 1.8 nM. Further, the IC50 in experiment [2] is not below 20000 nM.
In the case of `C[C@@H](NCC1CCN(c2c(F)cc(C(=O)O)cc2F)CC1c1ccccc1)c1csc2ccccc12` (some centres unmarked) [Example 87], in experiment [1], the EC50 was 11 nM. In addition, the IC50 in experiment [2] was not below 20000 nM.
On the same counts, the results for `C[C@@H](NCC1CCN(c2cc(C(F)(F)F)c(C(=O)O)cn2)CC1c1cccc(F)c1)c1cccc2ccccc12` (some centres unmarked) [Example 98] are 17 nM and not below 20000 nM.
Regarding `C[C@@H](NCC1CCN(c2c(F)cc(-c3nnn[nH]3)cc2F)CC1c1ccccc1)c1cccc2ccccc12` (stereo partly drawn) [Example 53, (1R)—N-({1-[2,6-difluoro-4-(1H-tetrazol-5-yl)phenyl]-3-phenylpiperidin-4-yl}methyl)-1-(1-naphthyl)ethaneamine hydrochloride], the EC50 in experiment [1] was found to be 3.8 nM. For the same molecule, the inhibition in vivo at 3 mg/kg in experiment [3] (setting [4]) came out at 20%.
Consider `C[C@@H](NCC1CCN(c2ccc(C(=O)O)cn2)CC1c1ccccc1F)c1cccc2ccccc12` (some centres unmarked) [Example 104], for which the EC50 in experiment [1] came out at 14 nM.
With `C[C@@H](NCC1CCN(c2ncc(C(=O)O)cc2Cl)CC1c1ccccc1F)c1cccc2ccccc12` (stereo partly drawn) [Example 32, 5-chloro-6-[3-(2-fluorophenyl)-4-({[(1R)-1-(1-naphthyl)ethyl]amino}methyl)piperidin-1-yl]nicotinic acid hydrochloride], the EC50 in experiment [1] came out at 7.5 nM. In addition, in experiment [3] (setting [4]), the inhibition in vivo at 3 mg/kg worked out at 34%.
Take `C[C@@H](NCC1CCN(c2cccc(C(=O)O)c2)CC1c1ccccc1)c1cccc2ccccc12` (stereo partly drawn) [Example 34, 3-[4-({[(1R)-1-(1-naphthyl)ethyl]amino}methyl)-3-phenylpiperidin-1-yl]benzoic acid hydrochloride]: the EC50 in experiment [1] is 8.1 nM. The IC50 in experiment [2] was not below 20000 nM.
For the molecule `COc1cccc([C@@H](C)NCC2CCN(c3ncc(C(=O)O)cc3Cl)CC2c2ccccc2)c1` (stereo partly drawn) [Example 33, 5-chloro-6-[4-({[(1R)-1-(3-methoxyphenyl)ethyl]amino}methyl)-3-phenylpiperidin-1-yl]nicotinic acid hydrochloride], in experiment [1], the EC50 was 20 nM. Besides, the inhibition in vivo at 3 mg/kg in experiment [3] (setting [4]) amounted to 29%.
`C[C@@H](NCC1CCN(c2ncc(C(=O)O)cc2Cl)CC1c1ccccc1)c1cccc2ccccc12` (stereo partly drawn) [Example 31, 5-chloro-6-[4-({[(1R)-1-(1-naphthyl)ethyl]amino}methyl)-3-phenylpiperidin-1-yl]nicotinic acid hydrochloride]: the EC50 in experiment [1] worked out at 5 nM. In addition, the inhibition in vivo at 3 mg/kg in experiment [3] (setting [4]) is 24%.
`C[C@@H](NCC1CCN(c2nc(C(=O)O)cs2)CC1c1ccccc1)c1cccc2ccccc12` (stereo partly drawn) [Example 39, 2-[4-({[(1R)-1-(1-naphthyl)ethyl]amino}methyl)-3-phenylpiperidin-1-yl]-1,3-thiazole-4-carboxylic acid hydrochloride]: the EC50 in experiment [1] was 2.6 nM. Besides, the inhibition in vivo at 3 mg/kg in experiment [3] (setting [4]) is 23%.
Turning to `C[C@@H](NCC1CCN(c2cccc(C(=O)O)n2)CC1c1ccccc1)c1cccc2ccccc12` (stereo partly drawn) [Example 30, 6-[4-({[(1R)-1-(1-naphthyl)ethyl]amino}methyl)-3-phenylpiperidin-1-yl]pyridine-2-carboxylic acid hydrochloride], the EC50 in experiment [1] turned out to be 5.5 nM. The molecule also displayed a 50% inhibitory concentration (IC50) in experiment [2] not below 20000 nM.

The IC50 is the concentration that gives 50% inhibition. The low end stands for greater potency, the high end for weaker potency.
